Source: PMC10343205, “Multidirectional Effects of Red Clover (Trifolium pratense L.) in Support of Menopause Therapy” (Molecules, 2023)

Key:
[1] = DPPH assay (free radical scavenging); conditions: standard substance
Procedure: In summary, a 96-well plate was used for the assay. Each well contained 25.0 μL of the test sample and 175.0 μL of a DPPH radical solution (3.9 mg/50 mL) in methanol. The control sample consisted of the DPPH radical solution and the solvent used for extraction, while the blank represented the absorbance value obtained from combining 25.0 μL of the extraction solvent with 175.0 μL of the solvent used to dissolve the DPPH radical (methanol). This procedure was repeated six times. The plate was shaken for 5 min at 25 °C and then incubated for 25 min at room temperature. The absorbance was measured at 517 nm using a plate reader (Multiskan GO 1510, Thermo Fisher Scientific, Vantaa, Finland). The free radical scavenging capacity (%) of the test extracts and the standard substance was calculated using the following equation:(1) […] activity%=A0-A1/A0×100% where A0 is the absorbance of the control, and A1 is the absorbance of the tested sample.

[2] = CUPRAC assay (antioxidant activity); conditions: standard substance
Procedure: To create the CUPRAC reagent, a conical flask wrapped in aluminum foil was used. Equal volumes of a 7.5 mM neocuproine solution in 96% ethanol, a 10 mM aqueous copper chloride solution and an ammonium acetate buffer solution (pH = 7) were added to the flask. In the 96-well plate, 50.0 µL of the test sample and 150.0 µL of the CUPRAC reagent solution were combined. The blank consisted of a mixture of the CUPRAC reagent and the solvent used for extraction. The assay was replicated six times. The plate was covered with aluminum foil, shaken for 5 min at 25 °C and then incubated at room temperature for 25 min. The absorbance was measured at 450 nm using a plate reader (Multiskan GO 1510, Thermo Fisher Scientific, Vantaa, Finland). […] This value was determined using a polynomial trend line.

[3] = biological target: collagenase; assay: Collagenase inhibition assay; assay type: biochemical; conditions: positive control
Procedure: The collagenase inhibitory activity of each sample was determined in vitro according to Widodo et al. with some modifications. In summary, 15.0 μL of enzyme, 60 μL of tricine buffer (pH 7.5) and 30 μL of extracts (50 mg/mL) were mixed and incubated at 37 °C for 20 min. Next, 20 μL of FALGPA (0.5 mM) was added to the mixture, and the absorbance was immediately measured at 325 nm using the plate reader (Multiskan GO 1510, Thermo Fisher Scientific, Vantaa, Finland). The absorbance was measured again after 20 min of incubation at 37 °C following the addition of the substrate. A control sample containing only the solvent used instead of the extract was performed, and the results were reduced by the value of the blank representing the enzyme-free sample. The positive control was a sample containing a solution of epigallocatechin gallate instead of the extract tested. The collagenase inhibition rate (presented for the final concentration of substance in enzymatic reaction) expressed as a percentage of inhibition was calculated using Formula (2).

[4] = Parallel artificial membrane permeability assay (PAMPA-GIT, PAMPA-BBB, PAMPA-SKIN); assay type: in vitro ADME; conditions: isoflavones from red clover extracts, donor 12.5 mg/mL, pH 7.4, 4 h at 37 °C, BBB and SKIN membranes; for Papp at 4 h, 12.5 mg/mL: PAMPA, read-out: Apparent permeability coefficient (Papp)
Procedure: Then, 200 μL of the donor solution was added to the donor wells. Subsequently, each filter membrane of the top plate was coated with a suitable lipid solution, i.e., 5 μL BBB, GIT or preincubated with hydration buffer 24 h earlier for SKIN assay (Pion Inc., Billerica, MA, USA), and the acceptor well was filled with 200 μL of acceptor fluid. The acceptor plate and the donor plate were coupled together and incubated for 4 h at 37 °C. After incubation, the plates were separated, and the concentrations of compounds that crossed the membrane were determined using HPLC. To calculate Papp, the following equation was used:(3) Papp=−ln1−CA/Cequilibrium/S×1/VD+1/VA×t where Papp—effective permeability coefficient (cm/s), VD—donor volume, VA—acceptor volume, Cequilibrium—equilibrium concentration, S—membrane area, and t—incubation time (in seconds).
Samples were analyzed in triplicate.

[5] = design: method as in PMID 29504397; conditions: rat study; cited from earlier work

Compound: O=C1O[C@H]([C@@H](O)CO)C(O)=C1O [Ascorbic acid]
- DPPH IC50 [1]: 68 ± 5 µg/mL
- CUPRAC IC50 [2]: 73 ± 3 µg/mL

Compound: O=C(O[C@@H]1Cc2c(O)cc(O)cc2O[C@@H]1c1cc(O)c(O)c(O)c1)c1cc(O)c(O)c(O)c1 [EGCG, epigallocatechin gallate]
- Collagenase inhibition IC50 [3]: IC50 = 0.666 ± 0.007 mg/ml

Compound: COc1ccc(-c2coc3cc(O)cc(O)c3c2=O)cc1 [biochanin A]
- Papp at 4 h, 12.5 mg/mL [4]: > 1 ×10⁻⁶ cm/s

Compound: COc1ccc(-c2coc3cc(O)ccc3c2=O)cc1 [formononetin]
- bioavailability [5]: 21.8%
- Papp at 4 h, 12.5 mg/mL [4]: > 1 ×10⁻⁶ cm/s

Compound: O=c1c(-c2ccc(O)cc2)coc2cc(O)cc(O)c12 [genistein]
- Apparent permeability coefficient (Papp) [4]: did not show such permeability
